Laboratory results reported in patent publication US7358276B2, “2-Oxo-1-pyrrolidine derivatives, processes for preparing them and their uses” (UCB, S.A., priority 2000, dated 2008).

Legend:
[1] = molecular target: T1, Levetiracetam Binding Site (LBS), rat cerebral cortex membranes (Rattus norvegicus, UniProt Q02563); experiment: LBS binding assay (competitive binding, [3H]-2-[4-(3-azidophenyl)-2-oxo-1-pyrrolidinyl]butanamide); settings: 4° C., 120 min
T1 construct: The crude membrane pellet obtained is resuspended in 50 mmol/l Tris-HCl (pH 7.4); from tissue; host or cells: rat cerebral cortex crude membranes (male Sprague-Dawley)

[2] = tested on: audiogenic seizures in sound-susceptible mice; experiment: Animal model of sound-susceptible mice (audiogenic seizures); assay type: in vivo; settings: intraperitoneally 60 minutes before induction of audiogenic seizures; doses given in mol/kg
Description: The activity of the compounds of formula I, or their pharmaceutically acceptable salts, as anticonvulsants can be determined in the audiogenic seizures model. The objective of this test is to evaluate the anticonvulsant potential of a compound by means of audiogenic seizures induced in sound-susceptible mice, a genetic animal model with reflex seizures. In this model of primary generalised epilepsy, seizures are evoked without electrical or chemical stimulation and the seizure types are, at least in part, similar in their clinical phenomenology to seizures occurring in man (Löscher W. & Schmidt D., Epilepsy Res. (1998), 2, p. 145-181; Buchhalter J. R., Epilepsia (1993), 34, S31-S41). Results obtained with compounds of formula I are indicative of a strong pharmacological effect.
The objective of this test is to evaluate the anticonvulsant potency of a compound in sound-susceptible mice, a genetic animal model with reflex seizures. In this model of primary generalised epilepsy, seizures are evoked without electrical or chemical stimulation and the seizure types are, at least in part, similar in their clinical phenomenology to seizures occuring in man (Löscher W. & Schmidt D., Epilepsy Res. (1998), 2, 145-181; Buchhalter J. R., Epilepsia (1993), 34, S31-S41).
Male or female genetically sound-sensitive mice (14-28 g; N=10), derived from a DBA strain originally selected by Dr. Lehmann of the Laboratory of Acoustic Physiology (Paris) and bred in the UCB Pharma Sector husbandry unit since 1978, are used. The experimental design consisted of several groups, one group receiving the vehicle control and the other groups different doses of the test-compound. The compounds are administered intraperitoneally 60 minutes before the induction of audiogenic seizures.
For testing, the animals are placed in small cages, one mouse per cage, in a sound-attenuated chamber. After a period of orientation of 30 seconds, the acoustic stimulus (90 dB, 10-20 kHz) is delivered for 30 seconds via loudspeakers positioned above each cage. During this interval, the mice are observed and the presence of the 3 phases of the seizure activity namely wild running, clonic and tonic convulsions, is recorded. The proportion of mice protected against wild running, clonic and tonic convulsions, respectively, is calculated.
For active compounds, an ED50 value, i.e. the dose producing 50% protection relative to the control group, together with 95% confidence limits, was calculated using a Probit Analysis (SAS/STAT® Software, version 6.09, PROBIT procedure) of the proportions of protected mice for each of the 3 phases of the seizure activity.

T1 sequence (Q02563 whole entry): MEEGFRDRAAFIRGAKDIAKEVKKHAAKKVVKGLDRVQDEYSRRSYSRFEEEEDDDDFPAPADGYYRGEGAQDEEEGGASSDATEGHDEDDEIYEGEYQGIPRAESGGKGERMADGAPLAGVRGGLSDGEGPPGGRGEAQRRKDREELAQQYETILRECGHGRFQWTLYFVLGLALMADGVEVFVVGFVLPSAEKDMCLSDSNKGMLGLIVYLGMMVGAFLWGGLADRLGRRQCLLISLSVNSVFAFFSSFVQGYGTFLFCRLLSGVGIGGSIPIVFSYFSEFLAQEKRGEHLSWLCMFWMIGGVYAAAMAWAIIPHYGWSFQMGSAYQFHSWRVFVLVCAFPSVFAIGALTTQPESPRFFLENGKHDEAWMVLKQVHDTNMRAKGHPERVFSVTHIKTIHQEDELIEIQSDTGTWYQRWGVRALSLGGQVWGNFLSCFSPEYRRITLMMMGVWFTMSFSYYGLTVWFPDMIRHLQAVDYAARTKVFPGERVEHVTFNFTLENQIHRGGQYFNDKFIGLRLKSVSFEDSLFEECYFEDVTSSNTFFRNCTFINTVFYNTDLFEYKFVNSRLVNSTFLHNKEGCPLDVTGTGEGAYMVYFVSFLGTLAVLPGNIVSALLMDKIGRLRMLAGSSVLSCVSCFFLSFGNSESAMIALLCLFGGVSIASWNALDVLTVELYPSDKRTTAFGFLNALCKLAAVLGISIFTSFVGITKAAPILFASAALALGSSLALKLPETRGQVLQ

Row | Compound | pKi (affinity for the levetiracetam binding site) [1] | ED50 (dose producing 50% protection against audiogenic seizures) [2]
1 | 2-[4-(2,2-dibromovinyl)-2-oxo-1-pyrrolidinyl]butanamide [Compound 47] | Particular affinity | Particularly promising activity
2 | CCCC(CN[C@@H](CC)C(N)=O)CC(=O)OCCC12CC3CC(CC(C3)C1)C2.Cl (mixture of isomers) [AA 3, 2-(1-adamantyl)ethyl 3-({[(1S)-1-(aminocarbonyl)propyl]amino}methyl)hexanoate hydrochloride] |  | Particularly promising activity
3 | CCCCOC(=O)CC(CCC)CN[C@@H](CC)C(N)=O.Cl (mixture of isomers) [AA 4, butyl 3-({[(1S)-1-(aminocarbonyl)propyl]amino}methyl)hexanoate hydrochloride] |  | Particularly promising activity
4 | CCCC(CN[C@@H](CC)C(N)=O)CC(=O)OC(C)C.Cl (mixture of isomers) [AA 5, isopropyl 3-({[(1S)-1-(aminocarbonyl)propyl]amino}methyl)hexanoate hydrochloride] |  | Particularly promising activity
5 | CCCC1CC(=O)N([C@@H](CC)C(N)=O)C1 (single isomer, unassigned) [Compound 158] | Particular affinity | Particularly promising activity
6 | CCCC1CC(=O)N([C@@H](CC)C(N)=O)C1 (single isomer, unassigned) [Compound 159] | Particular affinity | Particularly promising activity
7 | CC[C@@H](C(N)=O)N1CC(n2cccc2)CC1=O (single isomer, unassigned) [Compound 223, 4-pyrol-pyrrolidin-2-one] | Particular affinity | Particularly promising activity
8 | CCCC(CN[C@@H](CC)C(N)=O)CC(=O)OCC.Cl (stereo partly drawn) [AA 1, ethyl 3-({[(1S)-1-(aminocarbonyl)propyl]amino}methyl)hexanoate hydrochloride] |  | Particularly promising activity
9 | CCCC(CN[C@@H](CC)C(N)=O)CC(=O)OCC.Cl (stereo partly drawn) [AA 2, ethyl 3-({[(1S)-1-(aminocarbonyl)propyl]amino}methyl)hexanoate hydrochloride] |  | Particularly promising activity
10 | CC[C@@H](C(N)=O)N1CC(CBr)CC1=O (stereo partly drawn) [Compound 8, (2S)-2-[4-(bromomethyl)-2-oxo-1-pyrrolidinyl]butanamide] | Particular affinity | 
11 | CC[C@@H](C(N)=O)N1CC(CBr)CC1=O (stereo partly drawn) [Compound 9] | Particular affinity | Particularly promising activity
12 | CC[C@@H](C(N)=O)N1CC(CCl)CC1=O (stereo partly drawn) [Compound 30, (2S)-2-[4-(chloromethyl)-2-oxo-1-pyrrolidinyl]butanamide] | Particular affinity | 
13 | CC[C@@H](C(N)=O)N1CC(COS(=O)(=O)c2ccc(C)cc2)CC1=O (stereo partly drawn) [Compound 31, {1-[(1S)-1-(aminocarbonyl)propyl]-5-oxo-3-pyrrolidinyl}methyl 4-methylbenzenesulfonate] | Particular affinity | 
14 | CC[C@@H](C(N)=O)N1CC(CO[N+](=O)[O-])CC1=O (stereo partly drawn) [Compound 38, {1-[(1S)-1-(aminocarbonyl)propyl]-5-oxo-3-pyrrolidinyl}methyl Nitrate] | Particular affinity | 
15 | CCC(C(N)=O)N1CC(CS(=O)(=O)c2ccccc2)CC1=O (stereo not drawn) [Compound 43] | Particular affinity | 
16 | CC[C@@H](C(N)=O)N1CC(CN=C=S)CC1=O (stereo partly drawn) [Compound 49, (2S)-2-[4-(isothiocyanatomethyl)-2-oxo-1-pyrrolidinyl]butanamide] | Particular affinity | 
17 | CC[C@@H](C(N)=O)N1CC(c2cccs2)CC1=O (stereo partly drawn) [Compound 72, (2S)-2-[2-oxo-4-(2-thienyl)-1-pyrrolidinyl]butanamide] | Particular affinity | 
18 | CC[C@@H](C(N)=O)N1CC(c2ccsc2)CC1=O (stereo partly drawn) [Compound 88] | Particular affinity | Particularly promising activity
19 | CC[C@@H](C(N)=O)N1CC(c2ccc(-c3ccccc3)cc2)CC1=O (stereo partly drawn) [Compound 98] | Particular affinity | 
20 | CC[C@@H](C(N)=O)N1CC(CSC)CC1=O (stereo partly drawn) [Compound 100] | Particular affinity | Particularly promising activity
21 | CCCC1CC(=O)N(C(C)C(N)=O)C1 (stereo not drawn) [Compound 119] | Particular affinity | 

Row | Compound | pKi (affinity for the levetiracetam binding site) [1] | ED50 (dose producing 50% protection against audiogenic seizures) [2]
22 | CCCC1CC(=O)N(C(CC)C(N)=O)C1 (stereo not drawn) [Compound 127, 2-(2-oxo-4-propyl-1-pyrrolidinyl)butanamide] | Particular affinity | 
23 | CCCCCC1CC(=O)N(C(CC)C(N)=O)C1 (stereo not drawn) [Compound 142] | Particular affinity | 
24 | CC[C@@H](C(N)=O)N1CC(CC(C)(C)C)CC1=O (stereo partly drawn) [Compound 149, (2S)-2-(4-neopentyl-2-oxo-1-pyrrolidinyl)butanamide] | Particular affinity | 
25 | CCC1CC(=O)N([C@@H](CC)C(N)=O)C1 (stereo partly drawn) [Compound 151] | Particular affinity | Particularly promising activity
26 | CCC1CC(=O)N([C@@H](CC)C(N)=O)C1 (stereo partly drawn) [Compound 152] | Particular affinity | Particularly promising activity
27 | CCC(C(N)=O)N1CC(CC(F)F)CC1=O (stereo not drawn) [Compound 157, 2-[4-(2,2-difluoroethyl)-2-oxo-1-pyrrolidinyl]butanamide] | Particular affinity | 
28 | CCC(C(N)=O)N1CC(C=C(C)C)CC1=O (stereo not drawn) [Compound 163, 2-(2-oxo-4-(2,2-dimethylvinyl)-1-pyrrolidinyl)butanamide] | Particular affinity | 
29 | CCC(C(N)=O)N1CC(c2ccc(Cl)cc2)CC1=O (stereo not drawn) [Compound 169] | Particular affinity | 
30 | CCC(C(N)=O)N1CC(c2cccc(Cl)c2)CC1=O (stereo not drawn) [Compound 170] | Particular affinity | 
31 | CCC(C(N)=O)N1CC(c2ccccc2C(F)(F)F)CC1=O (stereo not drawn) [Compound 171] | Particular affinity | 
32 | CCC(C(N)=O)N1CC(c2ccccc2F)CC1=O (stereo not drawn) [Compound 173] | Particular affinity | 
33 | CCC(C(N)=O)N1CC(c2cccc(C)c2)CC1=O (stereo not drawn) [Compound 174] | Particular affinity | 
34 | CCC(C(N)=O)N1CC(c2cccc(Cl)c2)CC1=O (stereo not drawn) [Compound 204, 2-[4-(3-chlorophenyl)-2-oxo-1-pyrrolidinyl]butanamide] | Particular affinity | 
35 | CCC(C(N)=O)N1CC(c2cccc(Cl)c2)CC1=O (stereo not drawn) [Compound 205, 2-[4-(3-chlorophenyl)-2-oxo-1-pyrrolidinyl]butanamide] | Particular affinity | 
36 | C#CC1CC(=O)N(C(CC)C(N)=O)C1 (stereo not drawn) [Compound 207, 2-(4-ethynyl-2-oxo-1-pyrrolidinyl)butanamide] | Particular affinity | 
37 | CC[C@@H](C(N)=O)N1CC(CC(C)I)CC1=O (stereo partly drawn) [Compound 225, (2S)-2-[4-(2-iodopropyl)-2-oxo-1-pyrrolidinyl]butanamide] | Particular affinity | 
38 | CC[C@@H](C(N)=O)N1CC(CC(C)I)CC1=O (stereo partly drawn) [Compound 226, (2S)-2-[4-(2-iodopropyl)-2-oxo-1-pyrrolidinyl]butanamide] | Particular affinity | 
39 | CCCC1CC(=O)N(C(CCC)C(N)=O)C1 (stereo not drawn) [Compound 304] | Particular affinity | 
40 | CCCC1CC(=O)N(C(CC2CC2)C(N)=O)C1 (stereo not drawn) [Compound 306] | Particular affinity | 
41 | CCCC1CC(=O)N(C(Cc2cscn2)C(N)=O)C1 (stereo not drawn) [Compound 350] | Particular affinity | 
42 | C=CCC(C(N)=O)N1CC(CCC)CC1=O (stereo not drawn) [Compound 351] | Particular affinity | 
